# Measurements reported in US7138361B2, “Herbicidal heterocycles” (E. I. du Pont de Nemours and Company, priority 2000, dated 2006).
# How the values were obtained:
# Assay type in all cases: in vivo
# [1] = system: giant foxtail (Setaria faberii); test: Test B preemergence
# Procedure, shortened: (§1)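 Visual injury scores, 0 = no effect to 100 = complete control, assigned against controls after 13 to 15 days in the greenhouse. Compounds formulated in non-phytotoxic solvent plus surfactant and applied to soil after planting (pre) or onto foliage of 1- to 4-leaf plants (post).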
# [2] = system: velvetleaf (Abutilon theophrasti); test: Test B preemergence
# Procedure, shortened: as §1
# rice (Oryza saliva) [3] = test: Test B preemergence
# Procedure, shortened: as §1
# [4] = system: crabgrass (Digitaria sanguinalis); test: Test B preemergence
# Procedure, shortened: as §1
# [5] = system: barnyardgrass (Echinochloa crus-galli); test: Test B preemergence
# Procedure, shortened: as §1
# [6] = system: morning glory (Ipomoea hederacea); test: Test B preemergence
# Procedure, shortened: as §1
# [7] = system: pigweed (Amaranthus retroflexus); test: Test B preemergence
# Procedure, shortened: as §1
# [8] = system: cocklebur (Xanthium strumarium); test: Test B preemergence
# Procedure, shortened: as §1
# [9] = system: Surinam grass (Brachiaria decumbens); test: Test B preemergence
# Procedure, shortened: as §1
# corn (Zea mays) [10] = test: Test B preemergence
# Procedure, shortened: as §1
# [11] = system: lambsquarters (Chenopodium album); test: Test B preemergence
# Procedure, shortened: as §1
# [12] = system: blackgrass (Alopecurus myosuroides); test: Test B postemergence
# Procedure, shortened: as §1
# [13] = system: giant foxtail (Setaria faberii); test: Test B postemergence
# Procedure, shortened: as §1
# wild oat (Avena fatua) = test: Test B postemergence
# Procedure, shortened: as §1
# [14] = system: velvetleaf (Abutilon theophrasti); test: Test B postemergence
# Procedure, shortened: as §1
# [15] = system: wheat (Triticum aestivum); test: Test B postemergence
# Procedure, shortened: as §1
# [16] = system: crabgrass (Digitaria sanguinalis); test: Test B postemergence
# Procedure, shortened: as §1
# [17] = system: barnyardgrass (Echinochloa crus-galli); test: Test B postemergence
# Procedure, shortened: as §1
# [18] = system: morning glory (Ipomoea hederacea); test: Test B postemergence
# Procedure, shortened: as §1
# [19] = system: pigweed (Amaranthus retroflexus); test: Test B postemergence
# Procedure, shortened: as §1
# [20] = system: cocklebur (Xanthium strumarium); test: Test B postemergence
# Procedure, shortened: as §1
# [21] = system: Surinam grass (Brachiaria decumbens); test: Test B postemergence
# Procedure, shortened: as §1
# corn (Zea mays) [22] = test: Test B postemergence
# Procedure, shortened: as §1
# [23] = system: lambsquarters (Chenopodium album); test: Test B postemergence
# Procedure, shortened: as §1
# rice (Oryza saliva) [24] = test: Test C flooded paddy test; conditions: for Rice plant response rating: Flooded Paddy, scale 0 to 100, 0 no effect, 100 complete control; for Plant response rating, Rice: scale 0 to 100 (0 no effect, 100 complete control)
# Procedure, shortened: (§2)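 Visual injury score, 0 (no effect) to 100 (complete control), relative to controls. Paddy plants treated at 2-leaf stage; greenhouse hold 12–14 d before rating.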
# [25] = system: duck salad (Heteranthera limosa); test: Test C flooded paddy test; conditions: for Ducksalad plant response rating: Flooded Paddy, scale 0 to 100, 0 no effect, 100 complete control; for Plant response rating, Ducksalad: scale 0 to 100 (0 no effect, 100 complete control)
# Procedure, shortened: as §2
# [26] = system: barnyardgrass (Echinochloa crus-galli); test: Test C flooded paddy test; conditions: for Barnyardgrass plant response rating: Flooded Paddy, scale 0 to 100, 0 no effect, 100 complete control; for Plant response rating, Barnyardgrass: scale 0 to 100 (0 no effect, 100 complete control)
# Procedure, shortened: as §2
# [27] = system: smallflower flatsedge (Cyperus difformis); test: Test C flooded paddy test; conditions: for Flatsedge plant response rating: Flooded Paddy, scale 0 to 100, 0 no effect, 100 complete control; for Plant response rating, Flatsedge: scale 0 to 100 (0 no effect, 100 complete control)
# Procedure, shortened: as §2
# [28] = Preemergence, Rate 500 g/ha, scale 0 to 100, 0 no effect, 100 complete control
# [29] = preemergence, Rate 125 g/ha, scale of 0 to 100 where 0 is no effect and 100 is complete control, 13 to 15 days
# [30] = Rate 125 g/ha, scale 0 to 100, 0 no effect, 100 complete control
# [31] = Rate 500 g/ha, scale 0 (no effect) to 100 (complete control), 13 to 15 days
# [32] = flooded paddy test, Rate 125 g/ha
# [33] = flooded paddy test, Rate 250 g/ha
# [34] = flooded paddy test, Rate 62 g/ha, visually evaluated after 12 to 14 days, 0 = no effect, 100 = complete control
# [35] = Rate 125 g/ha, scale 0 (no effect) to 100 (complete control), 13 to 15 days
# [36] = Rate 500 g/ha, scale 0 to 100, 0 is no effect, 100 is complete control, 13 to 15 days
# [37] = flooded paddy test, Rate 62 g/ha
compound,measurement,setting,value
COc1cc(C)nc(N2CCC(n3ccc(C(C)(C)C)n3)C2=O)n1 (centres unmarked) [Compound 137],"Plant response rating, Foxtail, Giant",[1]; [28],0
same,"Plant response rating, Foxtail, Giant",[1]; [29],0
same,"Plant response rating, Velvetleaf",[2]; [28],80
same,"Plant response rating, Velvetleaf",[2]; [29],0
same,"Plant response rating, Rice",rice (Oryza saliva) [3]; [28],70
same,"Plant response rating, Rice",rice (Oryza saliva) [3]; [29],30
same,"Plant response rating, Crabgrass",[4]; [28],80
same,"Plant response rating, Crabgrass",[4]; [29],0
same,"Plant response rating, Barnyardgrass",[5]; [28],40
same,"Plant response rating, Barnyardgrass",[5]; [29],0
same,"Plant response rating, Morningglory",[6]; [28],0
same,"Plant response rating, Morningglory",[6]; [29],0
same,"Plant response rating, Pigweed",[7]; [28],0
same,"Plant response rating, Pigweed",[7]; [29],0
same,"Plant response rating, Cocklebur",[8]; [28],80
same,"Plant response rating, Cocklebur",[8]; [29],0
same,"Plant response rating, Surinam grass",[9]; [28],50
same,"Plant response rating, Surinam grass",[9]; [29],0
same,"Plant response rating, Corn",corn (Zea mays) [10]; [28],0
same,"Plant response rating, Corn",corn (Zea mays) [10]; [29],0
same,"Plant response rating, Lambsquarters",[11]; [28],0
same,"Plant response rating, Lambsquarters",[11]; [29],0
same,"Plant response rating, Blackgrass",[12]; [30],0
same,"Plant response rating, Blackgrass",[12]; [31],0
same,"Plant response rating, Foxtail, Giant",[13]; [30],0
same,"Plant response rating, Foxtail, Giant",[13]; [31],90
same,"Plant response rating, Wild Oat",wild oat (Avena fatua); [30],0
same,"Plant response rating, Wild Oat",wild oat (Avena fatua); [31],0
same,"Plant response rating, Velvetleaf",[14]; [30],0
same,"Plant response rating, Velvetleaf",[14]; [31],0
same,"Plant response rating, Wheat",[15]; [30],0
same,"Plant response rating, Wheat",[15]; [31],0
same,"Plant response rating, Crabgrass",[16]; [30],0
same,"Plant response rating, Crabgrass",[16]; [31],0
same,"Plant response rating, Barnyardgrass",[17]; [30],0
same,"Plant response rating, Barnyardgrass",[17]; [31],0
same,"Plant response rating, Morningglory",[18]; [30],0
same,"Plant response rating, Morningglory",[18]; [31],0
same,"Plant response rating, Pigweed",[19]; [30],0
same,"Plant response rating, Pigweed",[19]; [31],0
same,"Plant response rating, Cocklebur",[20]; [30],0
same,"Plant response rating, Cocklebur",[20]; [31],0
same,"Plant response rating, Surinam grass",[21]; [30],0
same,"Plant response rating, Surinam grass",[21]; [31],0
same,"Plant response rating, Corn",corn (Zea mays) [22]; [30],0
same,"Plant response rating, Corn",corn (Zea mays) [22]; [31],0
same,"Plant response rating, Lambsquarters",[23]; [30],0
same,"Plant response rating, Lambsquarters",[23]; [31],0
same,Rice plant response rating,rice (Oryza saliva) [24]; Rate 500 g/ha,0
same,"Plant response rating, Rice",rice (Oryza saliva) [24]; [32],0
same,"Plant response rating, Rice",rice (Oryza saliva) [24]; [33],0
same,"Plant response rating (scale 0 to 100), Rice",rice (Oryza saliva) [24]; [34],0
same,Ducksalad plant response rating,[25]; Rate 500 g/ha,0
same,"Plant response rating, Ducksalad",[25]; [32],0
same,"Plant response rating, Ducksalad",[25]; [33],0
same,"Plant response rating (scale 0 to 100), Ducksalad",[25]; [34],0
same,Barnyardgrass plant response rating,[26]; Rate 500 g/ha,0
same,"Plant response rating, Barnyardgrass",[26]; [32],0
same,"Plant response rating, Barnyardgrass",[26]; [33],0
same,"Plant response rating (scale 0 to 100), Barnyardgrass",[26]; [34],0
same,Flatsedge plant response rating,[27]; Rate 500 g/ha,0
same,"Plant response rating, Flatsedge",[27]; [32],0
same,"Plant response rating, Flatsedge",[27]; [33],0
same,"Plant response rating (scale 0 to 100), Flatsedge",[27]; [34],0
Cc1ccc(N2CCC(n3ccc(C(C)(C)C)n3)C2=O)cc1OCCI (centres unmarked) [Compound 108],"Plant response rating, Foxtail, Giant",[1]; [28],20
same,"Plant response rating, Foxtail, Giant",[1]; [29],0
same,"Plant response rating, Velvetleaf",[2]; [28],0
same,"Plant response rating, Velvetleaf",[2]; [29],0
same,"Plant response rating, Rice",rice (Oryza saliva) [3]; [28],0
same,"Plant response rating, Rice",rice (Oryza saliva) [3]; [29],0
same,"Plant response rating, Crabgrass",[4]; [28],0
same,"Plant response rating, Crabgrass",[4]; [29],0
same,"Plant response rating, Barnyardgrass",[5]; [28],0
same,"Plant response rating, Barnyardgrass",[5]; [29],0
same,"Plant response rating, Morningglory",[6]; [28],0
same,"Plant response rating, Morningglory",[6]; [29],0
same,"Plant response rating, Pigweed",[7]; [28],60
same,"Plant response rating, Pigweed",[7]; [29],20
same,"Plant response rating, Cocklebur",[8]; [28],0
same,"Plant response rating, Cocklebur",[8]; [29],0
same,"Plant response rating, Surinam grass",[9]; [28],30
same,"Plant response rating, Surinam grass",[9]; [29],0
same,"Plant response rating, Corn",corn (Zea mays) [10]; [28],0
same,"Plant response rating, Corn",corn (Zea mays) [10]; [29],0
same,"Plant response rating, Lambsquarters",[11]; [28],100
same,"Plant response rating, Lambsquarters",[11]; [29],100
same,"Plant response rating, Blackgrass",[12]; [35],0
same,"Plant response rating, Blackgrass",[12]; [36],0
same,"Plant response rating, Foxtail, Giant",[13]; [35],0
same,"Plant response rating, Foxtail, Giant",[13]; [36],0
same,"Plant response rating, Wild Oat",wild oat (Avena fatua); [36],0
same,"Plant response rating, Velvetleaf",[14]; [36],60
same,"Plant response rating, Wheat",[15]; [36],0
same,"Plant response rating, Crabgrass",[16]; [35],0
same,"Plant response rating, Crabgrass",[16]; [36],0
same,"Plant response rating, Barnyardgrass",[17]; [35],0
same,"Plant response rating, Barnyardgrass",[17]; [36],0
same,"Plant response rating, Morningglory",[18]; [36],70
same,"Plant response rating, Pigweed",[19]; [36],40
same,"Plant response rating, Cocklebur",[20]; [35],20
same,"Plant response rating, Cocklebur",[20]; [36],40
same,"Plant response rating, Surinam grass",[21]; [35],0
same,"Plant response rating, Surinam grass",[21]; [36],20
same,"Plant response rating, Corn",corn (Zea mays) [22]; [35],0
same,"Plant response rating, Corn",corn (Zea mays) [22]; [36],0
same,"Plant response rating, Lambsquarters",[23]; [36],80
same,Rice plant response rating,rice (Oryza saliva) [24]; Rate 250 g/ha,0
same,Rice plant response rating,rice (Oryza saliva) [24]; Rate 500 g/ha,0
same,"Plant response rating, Rice",rice (Oryza saliva) [24]; [37],0
same,"Plant response rating, Rice",rice (Oryza saliva) [24]; [32],0
same,Ducksalad plant response rating,[25]; Rate 250 g/ha,0
same,Ducksalad plant response rating,[25]; Rate 500 g/ha,0
same,"Plant response rating, Ducksalad",[25]; [37],0
same,"Plant response rating, Ducksalad",[25]; [32],0
same,Barnyardgrass plant response rating,[26]; Rate 250 g/ha,0
same,Barnyardgrass plant response rating,[26]; Rate 500 g/ha,20
same,"Plant response rating, Barnyardgrass",[26]; [37],0
same,"Plant response rating, Barnyardgrass",[26]; [32],0
same,Flatsedge plant response rating,[27]; Rate 250 g/ha,30
same,Flatsedge plant response rating,[27]; Rate 500 g/ha,90
same,"Plant response rating, Flatsedge",[27]; [37],0
same,"Plant response rating, Flatsedge",[27]; [32],0
